Measurements taken from US10189843B2, “Fused pyrazole derivative having autotaxin inhibitory activity” (The University of Tokyo, priority 2014, dated 2019).

Target: T1, Human autotaxin enzyme (Homo sapiens, UniProt Q13822)
T1 construct: purchased R&D System
Experiment: Evaluation of autotaxin inhibitor, Method C (18:0 Lyso PC substrate, choline assay, Resorufin fluorescence)
Type: biochemical
Conditions: Method C (Test Example 3), read-out: Inhibitory activity (enzyme inhibitory activity, IC50)
Outline: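 Recombinant human autotaxin with compound and 200 μM 18:0 Lyso PC (stock) in Tris-HCl pH 7.5, NaCl, MgCl2, Triton X-100, 2 h RT. Released choline detected via choline oxidase/peroxidase/Amplex-type reagent, 20 min, resorufin fluorescence 531/598 nm; % inhibition vs no-compound and no-enzyme controls, concentration-response curve.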

| Compound | IC50 |
| --- | --- |
| CC(=O)Nc1cc(C#N)ccc1-c1cc2n(n1)[C@@H](C)CN(C[C@H]1CNC(=O)O1)C2=O [Compound I-0338] | 0.01 to 0.1 µM |
| CC(=O)Nc1cc(OC(F)(F)F)ccc1-c1cc2n(n1)[C@@H](C)CN(C[C@H]1CNC(=O)O1)C2=O [Compound I-0339] | < 0.01 µM |
| CC(=O)NC[C@@H](O)CN1C[C@H](C)n2nc(-c3ccc(OC(F)(F)F)cc3NC(C)=O)cc2C1=O [Compound I-0340] | 0.01 to 0.1 µM |
| CC(=O)Nc1cc(C#N)ccc1-c1cc2n(n1)[C@@H](C)CN(CC(=O)N(C)CCC#N)C2=O [Compound I-0341] | 0.01 to 0.1 µM |
| CNC(=O)Nc1cc(Cl)ccc1-c1cc2n(n1)[C@@H](C)CN(Cc1ccc(C#N)cc1)C2=O [Compound I-0342] | 0.1 to 1 µM |
| CC(=O)Nc1cc(Cl)ccc1-c1cc2n(n1)[C@@H](C(F)(F)F)CN(Cc1ccc(C#N)cc1)C2=O [Compound I-0343] | 0.01 to 0.1 µM |
| CC(=O)Nc1cc(C#N)ccc1-c1cc2n(n1)[C@@H](C)CN(Cc1cccc(C(=O)O)c1)C2=O [Compound I-0344] | < 0.01 µM |
| CC(=O)Nc1cc(OC(F)(F)F)ccc1-c1cc2n(n1)[C@@H](C)CN(Cc1cccc(C(=O)O)c1)C2=O [Compound I-0345] | < 0.01 µM |
| C[C@H]1CN(Cc2ccc(C#N)cc2)C(=O)c2cc(-c3c(N)cc(Cl)cc3CO)nn21 [Compound I-0346] | 0.1 to 1 µM |
| CC(=O)Nc1cc(Cl)cc(CO)c1-c1cc2n(n1)[C@@H](C)CN(Cc1ccc(C#N)cc1)C2=O [Compound I-0347] | 0.01 to 0.1 µM |
| CC(=O)Nc1cc(C#N)cc(CO)c1-c1cc2n(n1)[C@@H](C)CN(Cc1ccc(C#N)cc1)C2=O [Compound I-0348] | 0.01 to 0.1 µM |
| CC(C)Nc1cc(Cl)ccc1-c1cc2n(n1)[C@@H](C)CN(Cc1ccc(C#N)cc1)C2=O [Compound I-0349] | 0.1 to 1 µM |
| C[C@H]1CN(CC(=O)N(C)CCC#N)C(=O)c2cc(-c3ccc(C#N)cc3NC(=O)C3CC3)nn21 [Compound I-0350] | < 0.01 µM |
| COCC(=O)Nc1cc(C#N)ccc1-c1cc2n(n1)[C@@H](C)CN(CC(=O)N(C)CCC#N)C2=O [Compound I-0351] | < 0.01 µM |
| C[C@H]1CN(CC(=O)N(C)CCC#N)C(=O)c2cc(-c3ccc(C#N)cc3NC(=O)CC(F)(F)F)nn21 [Compound I-0352] | 0.01 to 0.1 µM |
| C[C@H]1CN(CC(=O)N(C)CCC#N)C(=O)c2cc(-c3ccc(C#N)cc3NC(=O)CF)nn21 [Compound I-0353] | < 0.01 µM |
| C[C@H]1CN(CC(=O)N(C)CCC#N)C(=O)c2cc(-c3ccc(C#N)cc3NC(=O)C(F)(F)F)nn21 [Compound I-0354] | < 0.01 µM |
| N#Cc1ccc(CN2CC3CCCCCC(=O)Nc4cc(Cl)ccc4-c4cc(n3n4)C2=O)cc1 (centres unmarked) [Compound I-0355] | < 0.01 µM |
| CCNc1cc(Cl)cc(CO)c1-c1cc2n(n1)[C@@H](C)CN(Cc1ccc(C#N)cc1)C2=O [Compound I-0356] | < 0.01 µM |
| N#Cc1ccc(CN2CC3CC/C=C/CC(=O)Nc4cc(Cl)ccc4-c4cc(n3n4)C2=O)cc1 (centres unmarked) [Compound I-0357] | < 0.01 µM |
| N#Cc1ccc(CN2CC3CC/C=C\CC(=O)Nc4cc(Cl)ccc4-c4cc(n3n4)C2=O)cc1 (centres unmarked) [Compound I-0358] | 0.01 to 0.1 µM |
| C[C@H]1CN(CC(=O)N(C)CCC#N)C(=O)c2cc(-c3ccc(C#N)cc3NC(=O)C(C)(C)C)nn21 [Compound I-0359] | 0.01 to 0.1 µM |
| C[C@H]1CN(CC(=O)N(C)CCC#N)C(=O)c2cc(-c3ccc(C#N)cc3NC(=O)CO)nn21 [Compound I-0360] | 0.1 to 1 µM |
| C[C@H]1CN(Cc2ccc(C#N)cc2)C(=O)c2cc(-c3c(Br)cc(Cl)cc3CO)nn21 [Compound I-0361] | 0.1 to 1 µM |

Second part, the compound after the results:

| IC50 | Compound |
| --- | --- |
| 0.01 to 0.1 µM | CC(=O)Nc1cc(C#N)ccc1-c1cc2n(n1)[C@@H](C)CN(CC1CCCO1)C2=O (some centres unmarked) [Compound I-0362] |
| 0.01 to 0.1 µM | COC(=O)Nc1cc(Cl)ccc1-c1cc2n(n1)[C@@H](C)CN(CC(=O)N(C)CC#N)C2=O [Compound I-0363] |
| 0.01 to 0.1 µM | C[C@H]1CN(CC(=O)N(C)CC#N)C(=O)c2cc(-c3ccc(C#N)cc3NC(=O)C3CC3)nn21 [Compound I-0364] |
| 0.01 to 0.1 µM | C[C@H]1CN(CC(=O)N(C)CC#N)C(=O)c2cc(-c3ccc(Cl)cc3NC(=O)C3CC3)nn21 [Compound I-0365] |
| 0.01 to 0.1 µM | CC(=O)NC1=C(c2cc3n(n2)[C@@H](C)CN(Cc2ccc(C#N)cc2)C3=O)CCC(C(F)(F)F)C1 (some centres unmarked) [Compound I-0366] |
| 0.01 to 0.1 µM | CC(=O)Nc1cc(C#N)ccc1-c1cc2n(n1)[C@@H](C)CN(C1CCN(CC(F)(F)F)C1=O)C2=O (some centres unmarked) [Compound I-0367] |
| 0.01 to 0.1 µM | CC(=O)NC1=C(c2cc3n(n2)[C@@H](C)CN(Cc2ccc(C#N)cc2)C3=O)C(=O)CC(C(F)(F)F)C1 (some centres unmarked) [Compound I-0368] |
| 0.1 to 1 µM | CC(=O)NC1=C(c2cc3n(n2)[C@@H](C)CN(Cc2ccc(C#N)cc2)C3=O)C(O)CC(C(F)(F)F)C1 (some centres unmarked) [Compound I-0369] |
| 0.01 to 0.1 µM | CC(=O)Nc1cc(C#N)ccc1-c1cc2n(n1)C(CC(F)(F)F)CN(Cc1ccc(C#N)cc1)C2=O (centres unmarked) [Compound I-0370] |
| 0.1 to 1 µM | N#Cc1ccc(CN2CC(CC(F)(F)F)n3nc(-c4c(C#N)cc(Cl)cc4CO)cc3C2=O)cc1 (centres unmarked) [Compound I-0371] |
| 0.1 to 1 µM | CCCCC1CN(Cc2ccc(C#N)cc2)C(=O)c2cc(-c3ccc(S(F)(F)(F)(F)F)cc3)nn21 (centres unmarked) [Compound I-0372] |
